Laboratory results published in patent US10851082B2, “Substituted aromatic n-heterocyclic compounds as inhibitors of mitogen-activated protein kinase interacting kinase 1 (MNK1) and 2 (MNK2)” (Northwestern University, priority 2015, dated 2020).
Where two headings read alike, the source gives them in different places.

What was measured:
Mnk2 = Mnk2 (Homo sapiens (Human), UniProt Q9HBH9); assay: Mnk2 kinase inhibition, ADP-Glo ADP monitoring assay; type: biochemical
Method: (§1) The synthesized compounds then were tested for inhibition of the kinase activity (IC50) of Mnk1 and/or Mnk2 using the ADP monitoring assay for kinases described in Zegzouti, H.; Zdanovskaia, M.; Hsiao, K.; Goueli, S. A., ADP-Glo: A Bioluminescent and homogeneous ADP monitoring assay for kinases.

Mnk1 = Mnk1 (Homo sapiens (Human), UniProt Q9BUB5); assay: Mnk1 kinase inhibition, ADP-Glo ADP monitoring assay; type: biochemical
Method: as §1

[1] = read-out: Mnk1 inhibition IC50 (+,++,+++)
[2] = ADP-Glo kinase assay, read-out: Mnk2 IC50
[3] = ADP-Glo kinase assay, unit inferred, read-out: Mnk2 IC50
[4] = unit inferred, read-out: Mnk1 IC50
[5] = ADP-Glo kinase assay, read-out: Mnk2 inhibition IC50 (+,++,+++)

Chain of Mnk1 (Q9BUB5 whole entry): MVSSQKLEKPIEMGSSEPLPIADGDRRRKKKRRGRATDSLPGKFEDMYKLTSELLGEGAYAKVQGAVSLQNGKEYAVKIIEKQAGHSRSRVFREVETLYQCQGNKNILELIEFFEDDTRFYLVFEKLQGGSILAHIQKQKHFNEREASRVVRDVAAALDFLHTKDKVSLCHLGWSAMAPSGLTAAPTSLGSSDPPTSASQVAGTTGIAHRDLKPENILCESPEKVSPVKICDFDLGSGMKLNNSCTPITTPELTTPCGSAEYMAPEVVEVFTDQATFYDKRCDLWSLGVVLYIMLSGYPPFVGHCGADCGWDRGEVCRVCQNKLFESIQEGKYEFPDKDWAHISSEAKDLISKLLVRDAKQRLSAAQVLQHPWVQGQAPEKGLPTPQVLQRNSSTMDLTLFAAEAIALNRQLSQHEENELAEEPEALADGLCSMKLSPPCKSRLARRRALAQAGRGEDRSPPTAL
Chain of Mnk2 (Q9HBH9 whole entry): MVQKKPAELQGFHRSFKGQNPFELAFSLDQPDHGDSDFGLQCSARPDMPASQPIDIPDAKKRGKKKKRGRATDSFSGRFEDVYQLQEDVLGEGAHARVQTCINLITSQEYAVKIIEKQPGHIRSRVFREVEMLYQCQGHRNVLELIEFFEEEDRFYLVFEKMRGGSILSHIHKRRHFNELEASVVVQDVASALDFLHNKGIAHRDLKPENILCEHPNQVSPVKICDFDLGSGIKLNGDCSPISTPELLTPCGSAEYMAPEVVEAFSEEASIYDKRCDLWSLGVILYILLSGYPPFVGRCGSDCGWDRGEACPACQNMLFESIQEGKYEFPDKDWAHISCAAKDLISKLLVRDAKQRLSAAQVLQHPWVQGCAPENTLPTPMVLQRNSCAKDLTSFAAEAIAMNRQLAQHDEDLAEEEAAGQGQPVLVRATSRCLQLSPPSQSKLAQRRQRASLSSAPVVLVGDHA

SMILES | IC50 (Mnk1; [1]) [µM] | IC50 (Mnk2; [2]) [µM] | IC50 (Mnk1; read-out: Mnk1 IC50) [µM] | further results
NC1CC(Oc2ncc(Cl)c(-n3cnc(C(F)(F)F)c3)n2)C1 (stereo not drawn) [NUCC-0201664] | < 1 | – | – | IC50 (Mnk2): 1 to 10 µM
S=c1oc2ccccc2n1-c1ccnc(NCCc2ccncc2)n1 [NUCC-0176354] | – | 4.9 | 10 | –
c1ccc(Cn2cc(-c3ccnc(NCCc4ccncc4)n3)cn2)cc1 [NUCC-0060972] | – | 2.5 | 19 | –
N#Cc1cnc(OC2CCCOC2)nc1-n1cnc2ccccc21 (stereo not drawn) [NUCC-0200795] | > 10 | – | – | IC50 (Mnk2): 1 to 10 µM
COc1cnc(NCCc2ccncc2)nc1-n1cnc2ccccc21 [NUCC-0175698] | – | 1.8 | 5 | –
c1ccc(C2CC2Nc2nccc(-n3cnc4ccccc43)n2)cc1 (stereo not drawn) [NUCC-0196255] | – | – | – | IC50 (Mnk2; [3]): 0.92 µM; IC50 (Mnk1; [4]): > 10 µM
c1ccc2c(c1)ncn2-c1ccnc(NCCc2c[nH]c3ccccc23)n1 [NUCC-0196260] | – | – | – | IC50 (Mnk2; [3]): 0.09 µM; IC50 (Mnk1; [4]): 0.5 µM
CC1=C(Oc2ncc(Cl)c(-n3cnc4ccccc43)n2)C(=O)CO1 [NUCC-0201019] | 1 to 10 | – | – | IC50 (Mnk2): 1 to 10 µM
FC(F)(F)c1cnc(OC2CCNC2)nc1-n1cnc2ccccc21 (stereo not drawn) [NUCC-0201897] | < 1 | – | – | IC50 (Mnk2; [5]): < 1 µM
NC(=O)c1cccc(-c2cnc(OC3CCNC3)nc2-n2cnc3ccccc32)c1 (stereo not drawn) [NUCC-0201901] | 1 to 10 | – | – | IC50 (Mnk2; [5]): < 1 µM
Oc1cnc(NCCc2ccncc2)nc1-n1cnc2ccccc21 [NUCC-0196263] | – | – | – | IC50 (Mnk2; [3]): > 10 µM; IC50 (Mnk1; [4]): > 10 µM
Clc1cnc(Oc2cccnc2)nc1-n1cnc2ccccc21 [NUCC-0200810, 1-(5-chloro-2-(pyridin-3-yloxy)pyrimidin-4-yl)-1H-benzo[d]imidazole] | – | – | – | Mnk2 inhibition IC50 (+,++,+++) (Mnk2; ADP-Glo kinase assay): no activity; Mnk1 inhibition IC50 (+,++,+++) (Mnk1): no activity
O=c1oc2ccccc2n1-c1ccnc(NCCc2ccncc2)n1 [NUCC-0176353] | – | 6.8 | 9.5 | –
Clc1cccc(CCOc2ncc(Cl)c(-n3cnc4ccccc43)n2)n1 [NUCC-0201021] | < 1 | – | – | IC50 (Mnk2; [5]): < 1 µM
FC(F)(F)c1cnc(NC23CC(C2)C3)nc1-n1cnc2ccccc21 [NUCC-0201888] | < 1 | – | – | IC50 (Mnk2; [5]): < 1 µM
OC1Cc2ccccc2C1Nc1nccc(-n2cnc3ccccc32)n1 (stereo not drawn) [NUCC-0176369] | – | – | – | Mnk2 IC50 (Mnk2; ADP-Glo kinase assay): no activity; Mnk1 IC50 (Mnk1): no activity
CCOC(=O)c1cnc(NCCc2ccncc2)nc1-n1cnc2ccccc21 [NUCC-0196310] | – | – | – | IC50 (Mnk2; [3]): 5.4 µM; IC50 (Mnk1; [4]): 2.1 µM
Nc1cnc(NCCc2ccncc2)nc1-n1cnc2ccccc21 [NUCC-0196231] | – | – | – | IC50 (Mnk2; [3]): > 10 µM; IC50 (Mnk1; [4]): > 10 µM

Continued, in another order:

IC50 (Mnk1; [1]) [µM] | IC50 (Mnk2; [2]) [µM] | IC50 (Mnk1; read-out: Mnk1 IC50) [µM] | SMILES | further results
– | 1.1 | 4.3 | c1cc(CCNc2nccc(-n3cnc4cnccc43)n2)ccn1 [NUCC-0176143] | –
– | 5 | 16 | c1ccc2c(c1)ccn2-c1ccnc(NCCc2cnc[nH]2)n1 [NUCC-0060955] | –
< 1 | – | – | Clc1cnc(OC2CCOC2)nc1-n1cnc2ccccc21 (stereo not drawn) [NUCC-0200805] | IC50 (Mnk2; [5]): < 1 µM
< 1 | – | – | NC1CC(Oc2ncc(C3CC3)c(-n3cnc4ccccc43)n2)C1 (stereo not drawn) [NUCC-0201900] | IC50 (Mnk2; [5]): < 1 µM
1 to 10 | – | – | Clc1cnc(NC2CCC2)nc1-n1cnc2ccccc21 [NUCC-0201050] | IC50 (Mnk2): 1 to 10 µM
> 10 | – | – | Cc1ccc2c(c1)ncn2-c1nc(NCCc2ccncc2)ncc1Cl [NUCC-0200908] | IC50 (Mnk2): 1 to 10 µM
– | 2.5 | 8.5 | O=[N+]([O-])c1ccc(NCCNc2ccnc(-n3cnc4ccccc43)n2)nc1 [NUCC-0176366] | –
> 10 | – | – | Clc1cnc(NCCCc2ccncc2)nc1-n1cnc2ccccc21 [NUCC-0200912] | IC50 (Mnk2): 1 to 10 µM
– | 1.2 | 2.6 | c1ccc2c(c1)ncn2-c1cc(NCCc2ccncc2)ncn1 [NUCC-0176284] | –
– | 4.7 | 8.5 | c1ccc2c(c1)CCN2c1ccnc(NCCc2ccncc2)n1 [NUCC-0176233] | –
– | 5.6 | 8.1 | c1ccc2c(c1)cnn2-c1nccc(NCCc2ccncc2)n1 [NUCC-0176347] | –
< 1 | – | – | Brc1cnc(OC2CCNC2)nc1-n1cnc2ccccc21 (stereo not drawn) [NUCC-0201895] | IC50 (Mnk2; [5]): < 1 µM
– | 3.5 | 5.1 | c1ccc2c(c1)OCCN2c1ccnc(NCCc2ccncc2)n1 [NUCC-0176230] | –
1 to 10 | – | – | Clc1cnc(OCCN2CCOCC2)nc1-n1cnc2ccccc21 [NUCC-0200806] | IC50 (Mnk2; [5]): < 1 µM
– | 0.78 | 6 | COc1cccc(-n2cc(-c3ccnc(NC4CCNC4)n3)cn2)c1 (stereo not drawn) [NUCC-0125590] | –
